Laboratory results taken from US20080070852A1, “3-Beta-D-Ribofuranosylthiazolo[ 4,5-D] Pyridimine Nucleosides and Uses Thereof” (priority 2004, published 2008).
Where two headings read alike, the source gives them in different places.

What was measured:
beagle dogs [1] = conditions: dog, in vivo, iv, 12.5 mg/kg
Protocol: (§1) Formal toxicology studies of intravenously administered isatoribine and orally administered isatoribine and val-isatoribine were conducted in beagle dogs.
(§2) In each case the compound was administered as a solution, by gavage or by intravenous infusion. Multiple parameters were assessed, as is customary in a toxicology study. In the studies providing higher potential exposure to isatoribine, the plasma concentration of isatoribine was assessed by a LC/MS method.

beagle dogs [2] = conditions: cited from earlier work
[3] = tested on: interferon alpha (Mu-IFN-α); test: Murine interferon alpha in plasma of dosed mice; format: in vivo
From the text: The normal mouse provides a useful system for the assessment of the degree to which the inventions described herein provide material improvement in the oral delivery of 1 (isatoribine). Not only can one measure the plasma concentrations of isatoribine arising from oral administration of the said prodrug(s) but also the extensive immunological research conducted in the mouse has provided reagents suitable for measuring the levels of interferon alpha, a cytokine of interest reflecting one of the desired biologic activities of isatoribine.
Table 1 records the results of an assay for murine interferon alpha in the plasma of mice that were dosed two times with isatoribine, formulated in bicarbonate, at a level of 50 mg/kg by the oral route.
Table 2 records the results of assays for murine interferon alpha in the plasma of mice that first were dosed with bicarbonate and then four hours later were dosed orally with isatoribine, formulated in bicarbonate, at a level of 50 mg/kg. Interferon was reported in the plasma from four mice, including two that had received the bicarbonate vehicle dose.
Table 3 records the results of assays for murine interferon alpha in the plasma of mice that were dosed orally with val-isatoribine, dissolved in bicarbonate, at a dose that is equivalent to 50/mg/kg of isatoribine on a molar basis. […] Interferon was detected in all mice assayed at a given time point, indicating the reliability of the effect following val-isatoribine administration.
In other experiments, plasma levels of isatoribine and interferon alpha were measured in mice that were dosed with isatoribine by the intravenous route, and these levels were compared to the levels of isatoribine and interferon alpha arising after oral administration of val-isatoribine. […] Thus, oral val-isatoribine provides levels of isatoribine and interferon that are approximately 50% of those observed after intravenous administration of isatoribine itself.

in vivo = conditions: beagle, dog, iv, 12.5 mg/kg
Protocol: as §1, §2

[4] = Toxicology studies in beagle dogs (GI tolerance); conditions: beagle, dog, iv; for AUC(0-t): plasma
Protocol: as §1, §2

beagle dogs [5] = test: Toxicology studies in beagle dogs (GI tolerance); conditions: dogs
Protocol: as §1, §2

[6] = Recovery of 1 in urine after intravenous administration; format: in vivo; conditions: read-out: recovery of administered dose in the urine as intact 1
Protocol: Reference values for compound I were obtained by similar procedures after either oral or intravenous dosing. […] For this reason, in some experiments the amount of 1 in urine collected over a period of 24 hours after dosing was used to assess compounds.

[7] = dogs, Oral Isatoribine, applied dose 2.5 mg/kg
[8] = IV Isatoribine, applied dose 25 mg/kg

Nc1nc2c(sc(=O)n2[C@@H]2O[C@H](CO)[C@@H](O)[C@H]2O)c(=O)[nH]1 [Compound 1, 5-amino-3-β-D-ribofuranosylthiazolo[4,5-d]pyrimidine-2,7-dione, reference compound]
Emesis or loose stool (beagle dogs [1]): Neg.
GI lesions or irritation (beagle dogs [1]): Neg.
limiting toxicity (beagle dogs [2]; dog, in vivo, po): gastrointestinal lesions
Emesis or loose stool (beagle dogs [2]; [7]): Neg.
GI lesions or irritation (beagle dogs [2]; [7]): Neg.
GI lesions or irritation (beagle dogs [2]; dogs, Oral Isatoribine, applied dose 5 mg/kg): Neg.
dogs with multiple, scattered red lesions on the intestinal mucosa (beagle dogs [2]; oral, 10 mg/kg, gross histopathologic evaluation): four of eight dogs
interferon in plasma ([3]; mice, two oral 50 mg/kg doses, interval four hours): no interferon was measurable
mice with interferon detected in plasma ([3]; oral dosing, studies of Tables 1-3): 4 of the 114
AUC(0-t) (in vivo): 19500 ng·h/mL
NOAEL ([4]; in vivo): 12.5 mg/kg
AUC(0-t) ([4]; 25 mg/kg): 42800 ng·h/mL
AUC(0-t) ([4]; 50 mg/kg): 87800 ng·h/mL
AUC(0-t) ([4]; 100 mg/kg): 209000 ng·h/mL
GI lesions (beagle dogs [5]; intravenous, necropsy or histopathologic evaluation): No lesions were seen in the GI tract
Emesis or loose stool (beagle dogs [5]; [8]): Neg.
GI lesions or irritation (beagle dogs [5]; [8]): Neg.
GI lesions or irritation (beagle dogs [5]; IV Isatoribine, applied dose 50 mg/kg): Neg.
GI lesions or irritation (beagle dogs [5]; IV Isatoribine, applied dose 100 mg/kg): Neg.
dose excreted [6]: > 75%
